Measured values from US9487481B2, “Bicyclic compounds” (BRISTOL-MYERS SQUIBB COMPANY, priority 2013, dated 2016).
“And” between values parts separate entries of the source, which are not always exact repeats. Equal values may be shown once.

Key:
circulating lymphocytes [1] = experiment: Mouse Blood Lymphocyte Reduction (BLR) Assay; type: in vivo; conditions: BALB/c mice, oral, 1 mg/kg, 24 hr post-dose
Procedure: (§1) Lewis rats were dosed orally with vehicle alone (polyethylene glycol 300, “PEG300”) or with 2-amino-2-[2-(4-octylphenyl)ethyl]-1,3-propanediol, hydrochloride (CAS: 162359-56-0) as a solution in the vehicle at doses of 0.1 mg/kg, 0.5 mg/kg and 3.0 mg/kg adjusted to reflect the free amount of test article. The results are provided in Table 4a and the level of lymphocyte reduction at 24 hours post-dose was maximal at 3.0 mg/kg. The percent reduction in lymphocytes is dose-related but the relationship is not linear, with non-proportional increases in dose being required to elicit sequentially greater reductions in lymphocyte counts. […] BALB/c mice were dosed orally with vehicle alone (polyethylene glycol 300, “PEG300”) or with Example 1, Example 2, Compound 6, Compound 8, or Comparative Compound 11. Compounds were dosed as a solution or suspension in the vehicle, adjusted to reflect the free amount of test article in the event that salt forms are utilized. Blood was drawn at 24 hr and blood lymphocyte counts were determined on an ADVIA® 120 Hematology Analyzer (Siemens Healthcare Diagnostics). The results were measured as a reduction in the percentage of circulating lymphocytes as compared to the vehicle treated group at the time of measurement. The results represent the average results of all animals within each treatment group (n=2-4).

mice = experiment: Pulmonary Toxicity Assay (BAL protein); type: in vivo; conditions: oral, 30 mg/kg, 24 hr post-dose; for Relative BAL protein vs. control: >1 = increased pulmonary toxicity
Procedure: The analysis of protein levels in bronchoalveolar lavage (BAL) fluid obtained from an animal were used to gauge pulmonary side effects. Increased levels of protein in BAL fluid were indicative of undesired pulmonary effects, such as pulmonary edema. Example 1, Example 2, Compound 6, Compound 8, and Compound 11 were administered orally to mice at a dose of 30 mg/kg. At 24 hours post dose, the mice were euthanized with intraperitoneal barbiturate overdose. The animals were placed in a supine position, a skin incision was made and blunt dissection followed to expose the trachea. The trachea was incised and a catheter was inserted 4-6 mm into the trachea. Phosphate-buffered saline (PBS; 1 mL/mouse) was infused into the lungs and then aspirated. The concentration of the BAL protein in the recovered BAL fluid was determined on an ADVIA® 1800 Chemistry Analyzer (Siemens Healthcare Diagnostics). The results represent the average results of all animals within each treatment group (n=2-4).
A value for the relative BAL protein versus control of greater than 1 indicated an increase in pulmonary toxicity compared to the administration of vehicle only. In this study, as reported in Table 5, the administration of Examples 1 and 2 gave relative BAL protein levels of 0.99 and 0.96, indicating no increase in the pulmonary toxicity. The administration of Compound 8 gave a relative BAL protein level of 1.03, which indicated slight or no increase in pulmonary toxicity. In contrast, administration of Compound 6 and Compound 11 gave relative BAL protein levels of 1.94 and 1.33, indicating increased pulmonary toxicity.

GFP-tagged S1P1 receptor = target: T1, GFP-tagged S1P1 receptor (Homo sapiens, UniProt P21453); experiment: S1P1 Receptor Internalization Assay; type: cell-based; conditions: CHO-K1 cells expressing GFP-tagged S1P1, 45 min
T1 construct: expressed in transfected cells; host or cells: CHO-K1 cells
T1 sequence (P21453 whole entry): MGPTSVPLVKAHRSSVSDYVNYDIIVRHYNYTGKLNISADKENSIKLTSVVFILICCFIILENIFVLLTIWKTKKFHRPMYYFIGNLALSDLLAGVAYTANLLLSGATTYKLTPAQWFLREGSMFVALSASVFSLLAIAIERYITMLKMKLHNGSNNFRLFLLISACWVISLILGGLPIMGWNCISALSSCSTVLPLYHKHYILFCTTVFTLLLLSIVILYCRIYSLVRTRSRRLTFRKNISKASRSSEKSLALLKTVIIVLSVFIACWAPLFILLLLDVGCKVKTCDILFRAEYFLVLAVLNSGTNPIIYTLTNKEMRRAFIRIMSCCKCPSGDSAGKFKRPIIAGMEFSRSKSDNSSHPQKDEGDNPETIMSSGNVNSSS
Procedure: CHO-K1 cells expressing a GFP-tagged S1P1 receptor were plated in 384-well poly-D-lysine coated tissue culture plates at 4×10^3 cells/well in 50 μl assay media (F12 with L-glutamine, 10% charcoal/dextran-treated FBS, 1× penicillin-streptomycin, 1M HEPES). Cell plates were incubated overnight at 37° C./5% CO2. Test compound were introduced to the cell plate from a compound source plate at 11 point, 3 fold serial dilutions and then the assay plates were incubated at 37° C./5% CO2 for 45 min. Cells were fixed and stained with 6% formaldehyde and 15 μg/ml Hoechst dye in PBS (Ca^2+/Mg^2+ free) at room temperature for 15 minutes. Cell plates were washed 4 times with PBS (Ca^2+/Mg^2+ free) with addition of 50 μl/PBS prior to plate sealing. Images were acquired by the Cellomics ARRAYSCAN® VTI high content imager. Data analysis for EC50 determination relative to internal control compound was accomplished using the Compartmental Analysis BioApplication on the Array Scan. The EC50 is defined as the agonist concentration that corresponds to 50% of the Ymax (maximal response) obtained for each individual compound tested and was quantified using the 4 parameter logistic equation to fit the data.

Male MRL/lpr mice = experiment: MRL/lpr Mouse Model of Spontaneous Lupus Erythematosus Assay; type: in vivo
Procedure: MRL/lpr mouse model of spontaneous lupus erythematosus assay is an animal model for spontaneous lupus erythematosus.
Male MRL/lpr mice (14 weeks old; Jackson Laboratories; n=12-13) were orally dosed with Example 2 (as a solution in vehicle) or vehicle alone (polyethylene glycol 300) twice a week for 11 weeks starting on day 0. Urine protein levels (by Albustix) were measured on day 0 and throughout the study. […] Additional groups of mice received a daily oral dose of dexamethasone (Dex) either independently or in combination with twice weekly dosing with Example 2. Urine protein levels (by Albustix) were measured on day 0 and throughout the study. […] All procedures involving animals were reviewed and approved by the Institutional Animal Care Use Committee.
Example 2 was tested in the MRL/lpr mouse model of spontaneous lupus erythematosus assay described hereinabove and the results are shown in Table 9.
Example 2 and dexamethasone (Dex) either independently or in combination, were tested in the MRL/lpr mouse model of spontaneous lupus erythematosus assay described hereinabove and the results are shown in Table 10.

S1P1 [2] = target: T2, S1P1 (Homo sapiens, UniProt P21453); experiment: S1P1 Binding Assay (33P-S1P ligand, CHO membranes); conditions: membranes from CHO cells expressing human S1P1, 0.03 nM 33P-S1P
T2 sequence (P21453 whole entry): as above
Procedure: Membranes were prepared from CHO cells expressing human S1P1. Cells pellets (1×10^9 cells/pellet) were suspended in buffer containing 20 mM HEPES (4-(2-hydroxyethyl)-1-piperazineethanesulfonic acid), pH 7.5, 50 mM NaCl, 2 mM EDTA (Ethylenediaminetetraacetic acid) and Protease Inhibitor cocktail (Roche), and disrupted on ice using the Polytron homogenizer. The homogenate was centrifuged at 20,000 rpm (48,000 g) and the supernatant was discarded. The membrane pellets were resuspended in buffer containing 50 mM HEPES, pH 7.5, 100 mM NaCl, 1 mM MgCl2, 2 mM EDTA and stored in aliquots at −80° C. after protein concentration determination.
Membranes (2 μg/well) and 0.03 nM final concentration of ^33P-S1P ligand (1 mCi/ml, Perkin Elmer or American Radiolabeled Chemicals) diluted in assay buffer (50 mM HEPES, pH7.4, 5 mM MgCl2, 1 mM CaCl2, 0.5% fatty acid free BSA (bovine serum albumin), 1 mM NaF) were added to the compound plates (384 FALCON® v-bottom plate (0.5 μl/well in a 11 point, 3-fold dilution). Binding was performed for 45 minutes at room temperature, terminated by collecting the membranes onto 384-well Millipore FB filter plates, and radioactivity was measured by TOPCOUNT®. The competition data of the test compounds over a range of concentrations was plotted as percentage inhibition of radioligand specific binding. […]

S1P1 [3] = target: T2, S1P1; experiment: Receptor [35S] GTPγS Binding Assay, S1P1/CHO cell membranes; type: biochemical; conditions: membranes prepared from S1P1/CHO cells
Procedure: (§2) Compounds were loaded in a 384 FALCON® v-bottom plate (0.5 μl/well in a 11 point, 3-fold dilution). Membranes prepared from S1P1/CHO cells or EDG3-Ga15-bla HEK293T cells (EDG3 equivalent S1P3) were added to the compound plate (40 μl/well, final protein 3 μg/well) with MULTIDROP®. [^35S]GTP (1250 Ci/mmol, Perkin Elmer) was diluted in assay buffer: 20 mM HEPES, pH7.5, 10 mM MgCl2, 150 mM NaCl, 1 mM EGTA (ethylene glycol tetraacetic acid), 1 mM DTT (Dithiothreitol), 10 μM GDP, 0.1% fatty acid free BSA, and 10 μg/ml Saponin to 0.4 nM. 40 μl of the [^35S] GTP solution was added to the compound plate with a final concentration of 0.2 nM. The reaction was kept at room temperature for 45 min. At the end of incubation, all the mixtures in the compound plate were transferred to Millipore 384-well FB filter plates via the VELOCITY11® Vprep liquid handler. The filter plate was washed with water 4 times by using the manifold Embla plate washer and dried at 60° C. for 45 min. MicroScint 20 scintillation fluid (30 μl) was added to each well for counting on the Packard TOPCOUNT®. EC50 is defined as the agonist concentration that corresponds to 50% of the Ymax (maximal response) obtained for each individual compound tested.
(§3) A larger value for the GTPγS S1P3 EC50 value indicated less activity in the GTPγS S1P3 binding assay.

EDG3 equivalent S1P3 = EDG3 equivalent S1P3 (Homo sapiens, UniProt Q99500); experiment: Receptor [35S] GTPγS Binding Assay, EDG3-Ga15-bla HEK293T cell membranes; type: biochemical; conditions: membranes prepared from EDG3-Ga15-bla HEK293T cells
Sequence of EDG3 equivalent S1P3 (Q99500 whole entry): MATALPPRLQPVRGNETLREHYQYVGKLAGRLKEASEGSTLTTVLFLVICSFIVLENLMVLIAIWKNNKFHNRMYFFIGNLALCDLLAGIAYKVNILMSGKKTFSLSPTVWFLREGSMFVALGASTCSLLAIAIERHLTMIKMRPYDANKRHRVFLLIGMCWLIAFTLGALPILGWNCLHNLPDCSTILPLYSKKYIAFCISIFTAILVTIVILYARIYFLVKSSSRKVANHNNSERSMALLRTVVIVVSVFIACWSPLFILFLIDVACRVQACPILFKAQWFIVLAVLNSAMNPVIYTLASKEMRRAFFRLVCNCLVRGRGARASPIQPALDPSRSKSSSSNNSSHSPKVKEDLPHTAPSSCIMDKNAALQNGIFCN
Procedure: as §2, §3

Male Lewis rats = experiment: Rat Adjuvant Induced Arthritis Assay (AA); type: in vivo; conditions: prophylactic
Procedure: The rat adjuvant-induced arthritis model is an animal model for human rheumatoid arthritis.
Male Lewis rats (150-175 g; Harlan, n=8 treatment group) were immunized at the base of the tail with 100 μl of 10 mg/ml freshly ground Mycobacterium butyricum (Difco Laboratories) in incomplete Freund's adjuvant (sigma). Animals were dosed once daily with the test article (as a solution or suspension in the vehicle) or vehicle alone (polyethylene glycol 300, “PEG300”) starting from the day of immunization. The volumes of their hind paws were measured in a water displacement plethysmometer (Ugo Basile, Italy). The baseline paw measurements were taken before onset of the disease (between day 7 to day 10). The paw measurements were then taken three times a week until the end of the study on day 20 to 21. All procedures involving animals were reviewed and approved by the Institutional Animal Care Use Committee.
Example 2 of the present invention was tested in the Rat Adjuvant Induced Arthritis assay described hereinabove and the results are shown in Table 7.

CB-17 SCID mice = experiment: Mouse T Cell Transfer Induced Colitis Assay; type: in vivo; conditions: q.o.d. oral; for Inflammation/Damage (Histology), Mean: 6 wk
Procedure: The mouse T Cell transfer induced colitis assay is an animal model for human colitis.
Colitis was induced in CB-17 SCID mice by the adoptive transfer of FACS sorted CD4^+CD45RB^high T cells from BALB/c mice (3×10^5/mouse, i.p.). Disease activities were monitored once a week for the initial 3 weeks and 3×/week for the subsequent weeks on the basis of body weight, soft stool or diarrhea, and anorectal prolapse. Animals were dosed orally every other day (q.o.d.) with the test article or vehicle starting from the day of T cell transfer. Mice were sacrificed 6 wk after T cell reconstitution and analyzed for bowel inflammation based on histological examination of H&E stained colon tissues. All procedures involving animals were reviewed and approved by the Institutional Animal Care Use Committee.
Example 2 was tested in the mouse T cell transfer induced colitis model described hereinabove and the results are shown in Table 8.

circulating lymphocytes [4] = experiment: Rat Blood Lymphocyte Reduction (BLR) Assay; type: in vivo; conditions: Lewis rats, oral, 24 hr post-dose; for Percent reduction vs. control (rat blood lymphocytes): hydrochloride
Procedure: as §1

CCCCCC[C@@H]1CCc2cc([C@@H]3CC[C@](N)(CO)C3)ccc2C1 (single isomer, unassigned) [Example 1]
Mouse blood lymphocytes, Compound Mean (circulating lymphocytes [1]): 0.7 | Percent reduction vs. control (mouse blood lymphocytes) (circulating lymphocytes [1]): 88% | Mouse BAL protein level, Compound Mean (mice): 8.25 mg/dL | Relative BAL protein vs. control (mice): 0.99

CCCCCC[C@@H]1CCc2cc([C@@H]3CC[C@](N)(COP(=O)(O)O)C3)ccc2C1 [Example 9, ((1R,3R)-1-Amino-3-((R)-6-hexyl-5,6,7,8-tetrahydronaphthalen-2-yl)cyclopentyl)methyl dihydrogen phosphate]
EC50 (GFP-tagged S1P1 receptor): 361 nM

C[C@@H]1C[C@H]2[C@@H]3CCC4=CC(=O)C=C[C@]4(C)[C@@]3(F)[C@@H](O)C[C@]2(C)[C@@]1(O)C(=O)CO [Dex, dexamethasone, reference compound]
% Mice with Proteinurea > 100 mg/dL (Male MRL/lpr mice; 24 weeks of age, 0.1 mg/kg q.d. oral): 50% | % Mice with Proteinurea > 100 mg/dL (Male MRL/lpr mice; 24 weeks of age, 0.5 mg/kg q.d. oral): 10%

CCCCCC[C@H]1CCc2cc([C@H]3CC[C@](N)(CO)C3)ccc2C1 [Compound 8, ((1R,3S)-1-amino-3-((S)-6-hexyl-5,6,7,8-tetrahydronaphthalen-2-yl)cyclopentyl)methanol]
Mouse blood lymphocytes, Compound Mean (circulating lymphocytes [1]): 2.4 | Percent reduction vs. control (mouse blood lymphocytes) (circulating lymphocytes [1]): 59% | Mouse BAL protein level, Compound Mean (mice): 7.5 mg/dL | Relative BAL protein vs. control (mice): 1.03

CCCCCC[C@@H]1CCc2cc([C@H]3CC[C@](N)(COP(=O)(O)O)C3)ccc2C1 [Example 10, (1R,3 S)-1-Amino-3-((R)-6-hexyl-5,6,7,8-tetrahydronaphthalen-2-yl) cyclopentyl)methyl dihydrogen phosphate]
IC50 (S1P1 [2]): 0.01 nM | EC50 (S1P1 [3]): 0.9 nM | EC50 (EDG3 equivalent S1P3): > 62500 nM

CCCCCC[C@@H]1CCc2cc([C@H]3CC[C@](N)(CO)C3)ccc2C1 (single isomer, unassigned) [Example 2]
Mouse blood lymphocytes, Compound Mean (circulating lymphocytes [1]): 0.54 | Percent reduction vs. control (mouse blood lymphocytes) (circulating lymphocytes [1]): 90% | Mouse BAL protein level, Compound Mean (mice): 8.0 mg/dL | Relative BAL protein vs. control (mice): 0.96 | Paw Swelling on Day 20, Mean (Male Lewis rats; 0.15 mg/kg once daily oral): 1.64 mL | Paw Swelling on Day 20, Mean (Male Lewis rats; 0.5 mg/kg once daily oral): 0.70 mL | Paw Swelling on Day 20, Mean (Male Lewis rats; 1.5 mg/kg once daily oral): 0.16 mL | Week 6 Percent Body Weight Changes, Mean (from 100%) (CB-17 SCID mice; 1 mg/kg): 100% → 98.7% | Inflammation/Damage (Histology), Mean (CB-17 SCID mice; 1 mg/kg): 5.46 | Week 6 Percent Body Weight Changes, Mean (from 100%) (CB-17 SCID mice; 5 mg/kg): 100% → 103.7% | Inflammation/Damage (Histology), Mean (CB-17 SCID mice; 5 mg/kg): 3.71 | % Mice with Proteinurea > 100 mg/dL (Male MRL/lpr mice; 24 weeks of age, 2 mg/kg, 2x week oral): 20% | % Mice with Proteinurea > 100 mg/dL (Male MRL/lpr mice; 25 weeks of age, 0.05 mg/kg, 2x week oral): 25% | % Mice with Proteinurea > 100 mg/dL (Male MRL/lpr mice; 25 weeks of age, 0.4 mg/kg, 2x week oral): 17% | % Mice with Proteinurea > 100 mg/dL (Male MRL/lpr mice; 25 weeks of age, 2 mg/kg, 2x week oral): 10%

CCCCCCCCc1ccc(CCC(N)(CO)CO)cc1.Cl [2-amino-2-[2-(4-octylphenyl)ethyl]-1,3-propanediol, hydrochloride]
Rat blood lymphocytes, Compound Mean (circulating lymphocytes [4]; 0.1 mg/kg): 2.78 | Percent reduction vs. control (rat blood lymphocytes) (circulating lymphocytes [4]; 0.1 mg/kg): 69% | Rat blood lymphocytes, Compound Mean (circulating lymphocytes [4]; 0.5 mg/kg): 1.64 | Percent reduction vs. control (rat blood lymphocytes) (circulating lymphocytes [4]; 0.5 mg/kg): 82% | Rat blood lymphocytes, Compound Mean (circulating lymphocytes [4]; 3.0 mg/kg): 1.02 | Percent reduction vs. control (rat blood lymphocytes) (circulating lymphocytes [4]; 3.0 mg/kg): 89%

CCCCCOc1ccc2cc([C@@H]3CC[C@](N)(CO)C3)ccc2c1 [Comparative Compound 11, reference compound]
Mouse blood lymphocytes, Compound Mean (circulating lymphocytes [1]): 2.18 | Percent reduction vs. control (mouse blood lymphocytes) (circulating lymphocytes [1]): 52% | Mouse BAL protein level, Compound Mean (mice): 13.3 mg/dL | Relative BAL protein vs. control (mice): 1.33

CCCCCC[C@H]1CCc2cc([C@@H]3CC[C@](N)(CO)C3)ccc2C1 [Compound 6, ((1R,3R)-1-amino-3-((S)-6-hexyl-5,6,7,8-tetrahydronaphthalen-2-yl)cyclopentyl)methanol]
Mouse blood lymphocytes, Compound Mean (circulating lymphocytes [1]): 1.2 | Percent reduction vs. control (mouse blood lymphocytes) (circulating lymphocytes [1]): 78% | Mouse BAL protein level, Compound Mean (mice): 14.3 mg/dL | Relative BAL protein vs. control (mice): 1.94 and 1.96
